Reference: patent US20190365719A1, “COMBINATION TREATMENTS OF HSP90 INHIBITORS FOR ENHANCING TUMOR IMMUNOGENICITY AND METHODS OF USE THEREOF” (Massachusetts Institute of Technology, priority 2018, published 2019)

Experiments:
[1] = test system: MC38 cells; assay: MHC Class I peptide profiling of MC38 cells by immunoprecipitation and mass spectrometry; type: cell-based, mouse
Protocol: MC38 cells were cultured as described above. 10-10 cm (˜1×10^8 cells) plates of MC38 cells were cultured for 72 hours in 0.1% DMSO or 50 nM HSP990. At the time of harvest, plates were washed 1× in PBS, and then cells were lifted using PBS+2 mM EDTA. Cells were then pelleted at 500 g for 5 min and the pellets washed twice more with ice cold PBS. Pellets were then resuspended in 1 mL IP lysis buffer ([…] Tris pH 7.5, 150 mM NaCl, 1% CHAPS, 0.2 mM PMSF, 1× HALT protease/phosphatase inhibitors (Pierce). Lysates were then sonicated with a microtip sonicator for 3×10 s pulses to further disrupt cell membranes, and then centrifuged at 14 k g for 10 min. The supernatant was then quantified at 10 mg total protein lysate was used for the MHC Class IIP.
Peptide MHC isolation was performed using a modified immunoprecipitation and protein filtration protocol, as previously described. […]
Peptides were eluted using a 130 minute gradient with 10-45% buffer B (70% Acetonitrile, 0.2M acetic acid) from 5-100 minutes and 45-55% from 100-120 minutes at a flow rate of 0.2 mL/min for a flow split of approximately 10,000:1. Peptides were analyzed using a Thermo Q Exactive HF-X Hybrid Quadrupole-Orbitrap mass spectrometer. […] Full-scan mass spectrometry spectra [mass/charge ratio (m/z), 350 to 2,000; resolution, 60,000] were detected in the Orbitrap analyzer after accumulation of ions at 3e6 target value. […]

[2] = test system: IFN-γ receptor KO and HSF1 knockout MC38 cells; assay: Flow cytometry of MHC-I on IFN-γ receptor KO and Hsf1 KO MC38 cells; type: cell-based, mouse
Protocol: Cell Culture MC38 cells were kindly provided by A. Sharpe from Dana Farber Cancer Institute. Cells were maintained in DMEM supplemented with 10% FBS and penicillin/streptomycin. Cells were confirmed negative for mycoplasma contamination by PCR-based assay. MC38 cells were seeded in 12 well plates at a density of 125,000 cells per well and allowed to attach for 24 hours, and then treated with the indicated concentrations of HSP90i (NVP-HSP990) or IFN-γ. For Ifngra knockout, control or sgRNA targeting Ifngra ([…]) were cloned into pLenti-CRISPRv2 (Addgene #52561). Lentivirus was produced with HEK293T cells and MC38 cells were transduced with standard protocols. Transduced cells were selected with 2 μg/mL puromycin for 72 hours. Selected cells were then treated with DMSO, 60 nM Hsp90i, 10 ng/mL Ifng, or the combination and analyzed by flow cytometry.
For analysis of MHC Class I surface expression, cells were seeded into 12 well plates (125,000/well). 24-hours later, cells were treated with the indicated concentrations of HSP90i (NVP-HSP990) or DMSO vehicle. 72-hours after treatment, cells were dissociated with Accumax (Innovative Cell Technologies) and each treatment condition was distributed into 2 wells of a 96 well plate. […] Cytometric data were plotted and analyzed with FloJo.

[3] = cited from earlier work

With COc1cccc(-c2cc(F)ccc2[C@H]2Cc3nc(N)nc(C)c3C(=O)N2)n1 [NVP-HSP990] the “MHC-I peptide repertoire compared to IFNγ” value [1] was “induced a distinct repertoire of MHC-I peptides”, the “number of unique MHC Class I peptides identified” value ([1]; 50 nM HSP990, 72 hours, 557 from vehicle-treated cells) was 1005 and the “MHC-I in IFN-γ receptor KO MC38 cells” value ([2]; 60 nM) was “induced MHC-I in IFN-γ receptor KO cells”. For the same molecule, the “MHC-I induction in HSF1 knockout MC38 cells” value ([2]; two knockout cell lines) was “HSF1 was not required for the induction of MHC-I”, the drug half-lives ([3]; both doses (50 mg and 2.5 mg)) was 20 to 25 h and the “steady state drug concentration in plasma” value ([3]; oral dosing of 2.5 mg) was 20 to 40 nM. For the same molecule, the peak plasma concentration ([3]; single oral dose of 2.5 mg, human) was 34 nM and the “peak plasma drug concentration” value ([3]; single orally administered dose of 50 mg, human) was 1.31 µM.
